Where two headings read alike, the source gives them in different places.
Experiments:
[1] = molecular target: T1, mTOR kinase (Homo sapiens, UniProt P42345); test: In vitro inhibitory activity on mTOR kinase (TR-FRET, GFP-4E-BP1 substrate); assay type: biochemical; conditions: for IC50: 0.5 μg/mL mTOR, 0.4 μM GFP-4E-BP1, 3 μM ATP
T1 construct: purchased Thermo Fisher PV4753
Description: Preparation of Reaction Buffers:
Basic buffer composition: 50 mM (mmol/L) HEPES (pH 7.5), 1 mM EGTA, 0.01% Tween-20, 10 mM MnCl2, 2 mM DTT (diluted from 500 mM before used).
(2) mTOR kinase buffer solution: 1650 μL of 2.5×mTOR kinase buffer solution was composed of 1640.2 μL of 1× basic buffer and 9.8 μL of mTOR (0.21 mg/mL stock solution), and the final concentration was 0.5 μg/mL.
(3) Detection buffer solution: 3960 μL of 2× detection buffer solution was composed of 3797.1 μL of TR-FRET buffer diluent (purchased from Thermo Fisher, catalog number: PV3574), 4.5 μL of Tb-anti-p4E-BP1 antibody (3.49 μM stock solution, purchased from Thermo Fisher, catalog number: PV4757) and 158 μL of EDTA (500 mM stock solution), and the final concentrations were 2 nM Tb-anti-p4E-BP1 antibody and 10 mM EDTA.
(1) 20 μL of 100% DMSO solution containing 5 mM compound to be tested was added to a 96-well plate.
(2) The compound was serially diluted 3 times in DMSO.
(3) 1 μL of the compound in the previous step was taken, diluted with 19 μL of mTOR kinase buffer, and transferred to another 96-well plate.
(4) 4 μL of mTOR kinase solution (purchased from Thermo Fisher, catalog number: PV4753) was added to a 384-well plate.
(5) 2 μL of the compound in G was taken out and added to the 384-well plate with mTOR kinase, and incubated at room temperature for 15 minutes.
(6) 4 μL of substrate solution was added to initiate the reaction.
The final concentrations of mTOR reaction solution were: 0.5 μg/mL mTOR, 0.4 μM GFP-4E-BP1, 3 μM ATP.
The final concentration of the DMSO solution was 1%.
(7) Incubation was performed for 60 minutes at room temperature.
(8) 10 μL of detection buffer was added. The final concentrations were 2 nM Tb-anti-p4E-BP1 antibody and 10 mM EDTA.
(9) Incubation was performed for 30 minutes at room temperature.
(10) TR-FRET value was read on MD5 multi-mode plate reader (Molecular Devices). The excitation wavelength was 340 nm, the emission wavelength 1 was 495 nm, and the emission wavelength 2 was 520 nm. The ratio of 520 nm/495 nm readings was calculated as TR-FRET value.
IC50 of compound was fitted by nonlinear regression equation:
Y=Bottom+(Top-Bottom)/(1+10^((LogIC50-X)*HillSlope));
X: common logarithm value of compound concentration; Y: TR-FRET value (520 nm/495 nm).

[2] = test system: Enterovirus 71 (EV71) H strain; test: In vitro anti-EV71 activity (antiviral activity in RD cells, CellTiter-Glo); assay type: cell-based; conditions: for in vitro anti-EV71 activity, in words: EV71, RD cells; for IC50: Enterovirus A, 96 h
Method in brief: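 RD cells infected with 100TCID50 EV71 in DMEM+2% FBS, with compound in 10-point three-fold dilutions, cultured 4 days at 37° C. Cell viability by CellTiter-Glo luminescence; inhibition rate relative to cell control fitted to S-curve for IC50. TD50 derived likewise; SI=TD50/IC50.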

[3] = EV71 H strain, RD cells, 4 days, CellTiter-Glo, read-out: IC50

T1 sequence (P42345 1360-2549 limits assumed): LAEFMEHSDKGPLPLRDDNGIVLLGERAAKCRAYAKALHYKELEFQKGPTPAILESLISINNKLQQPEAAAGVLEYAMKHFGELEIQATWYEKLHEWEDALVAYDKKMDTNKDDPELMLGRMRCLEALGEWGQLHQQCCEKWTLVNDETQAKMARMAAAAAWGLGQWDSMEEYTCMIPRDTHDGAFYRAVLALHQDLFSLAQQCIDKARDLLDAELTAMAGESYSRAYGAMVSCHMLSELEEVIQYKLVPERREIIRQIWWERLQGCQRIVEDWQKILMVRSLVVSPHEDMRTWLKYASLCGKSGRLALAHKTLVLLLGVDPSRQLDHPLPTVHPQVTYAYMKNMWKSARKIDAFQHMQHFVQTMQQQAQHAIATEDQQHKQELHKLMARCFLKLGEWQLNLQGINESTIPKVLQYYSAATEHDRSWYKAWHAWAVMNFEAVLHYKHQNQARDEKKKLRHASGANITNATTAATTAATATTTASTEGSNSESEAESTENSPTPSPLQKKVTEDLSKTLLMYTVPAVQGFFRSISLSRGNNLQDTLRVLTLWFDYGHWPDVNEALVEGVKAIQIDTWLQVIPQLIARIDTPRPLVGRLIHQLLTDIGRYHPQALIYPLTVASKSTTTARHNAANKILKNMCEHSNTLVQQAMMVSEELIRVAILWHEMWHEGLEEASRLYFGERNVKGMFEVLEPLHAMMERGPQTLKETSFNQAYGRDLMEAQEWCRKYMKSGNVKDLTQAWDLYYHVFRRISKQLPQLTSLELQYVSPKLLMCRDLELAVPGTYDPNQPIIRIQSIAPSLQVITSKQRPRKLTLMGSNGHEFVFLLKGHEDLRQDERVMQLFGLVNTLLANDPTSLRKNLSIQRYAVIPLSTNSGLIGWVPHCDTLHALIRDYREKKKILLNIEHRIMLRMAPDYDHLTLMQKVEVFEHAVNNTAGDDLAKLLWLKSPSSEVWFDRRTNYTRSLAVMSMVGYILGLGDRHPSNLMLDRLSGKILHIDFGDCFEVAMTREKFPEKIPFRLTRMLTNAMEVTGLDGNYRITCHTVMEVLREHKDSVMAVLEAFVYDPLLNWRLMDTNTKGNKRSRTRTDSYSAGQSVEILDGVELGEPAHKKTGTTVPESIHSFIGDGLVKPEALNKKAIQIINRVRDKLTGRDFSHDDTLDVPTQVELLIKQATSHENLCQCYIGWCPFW

Row | Structure (SMILES) | IC50 [1] [nM] | in vitro anti-EV71 activity, in words [2] | IC50 [2, 3] [nM] | inhibitory activity on mTOR kinase, in words [1] | melting point [°C] | IC50 ([2]; EV71, RD) [nM]
1 | Nc1cccc(Nc2ccc3ncc4ccc(=O)n(-c5cccc(C(F)(F)F)c5)c4c3c2)n1 [HTL-6-12, 9-[2-(6-aminopyridyl)]imino-2-oxo-1-[3-(trifluoromethyl)phenyl]-1,2-dihydrobenzo[h][1,6]naphthyridine] | 68.2 | moderate activity | 1230 ± 220 | – | – | –
2 | Cc1ncccc1-c1ccc2ncc3ccc(=O)n(-c4cccc(C(F)(F)F)c4)c3c2c1 [HTL-6-49, 9-[3-(2-methyl)pyridyl]-2-oxo-1-[3-(trifluoromethyl)phenyl]-1,2-dihydrobenzo[h][1,6]naphthyridine] | 11.9 | – | 70 ± 10 | – | – | –
3 | CCCC(=O)Nc1ccc(-c2ccc3ncc4ccc(=O)n(-c5cccc(C(F)(F)F)c5)c4c3c2)cn1 [HTL-7-05, 9-[3-(6-butyrylamino)pyridyl]-2-oxo-1-[3-(trifluoromethyl)phenyl]-1,2-dihydrobenzo[h][1,6]naphthyridine] | 39 | – | 130 ± 60 | – | – | –
4 | O=C(Cc1ccccc1)Nc1ccc(-c2ccc3ncc4ccc(=O)n(-c5cccc(C(F)(F)F)c5)c4c3c2)cn1 [HTL-7-10, 9-[3-(6-phenylacetylamino)pyridyl]-2-oxo-1-[3-(trifluoromethyl)phenyl]-1,2-dihydrobenzo[h][1,6]naphthyridine] | 34.8 | – | 390 ± 180 | – | – | –
5 | O=c1ccc2cnc3ccc(-c4ccc5ncccc5c4)cc3c2n1-c1cccc(C(F)(F)F)c1 [HTL-6-47, 9-(6-quinolyl)-2-oxo-1-[3-(trifluoromethyl)phenyl]-1,2-dihydrobenzo[h][1,6]naphthyridine] | 6.17 | – | 250 ± 230 | excellent inhibitory activity | 196 to 197 | –
6 | NC(=O)/C=C/c1ccc2ncc3oc(=O)n(-c4cccc(C(F)(F)F)c4)c3c2c1 [HTL-6-30, (E)-8-(2-carbamoyl-vinyl)-1-[3-(trifluoromethyl)phenyl]oxazolo[5,4-c]quinolin-2(1H)-one] | 47.6 | moderate inhibitory activity | 3700 ± 210 | better inhibitory activity | 291 to 292 | –
7 | O=c1ccc2cnc3ccc(C4=CCC5(CC4)OCCO5)cc3c2n1-c1cccc(C(F)(F)F)c1 [HTL-7-13, 9-(1,4-dioxa-spiro[4.5]dec-7-en-8-yl)-2-oxo-1-[3-(trifluoromethyl)phenyl]-1,2-dihydrobenzo[h][1,6]naphthyridine] | 86.1 | – | 26300 ± 12900 | – | 210 to 211 | –
8 | CC(=O)/C=C/c1cnc2ccc(-c3ccc(C)nc3)cc2c1Nc1cccc(C(F)(F)F)c1 [HTL-2-38, (E)-6-[3-(6-methyl)pyridyl]-4-[3-(trifluoromethyl)phenyl]aminoquinoline-3-butenone] | 1010 | moderate anti-EV71 activity | 2850 ± 1200 | weak inhibitory activity | 172 to 174 | –
9 | O=c1ccc2cnc3ccc(-c4cc[nH]n4)cc3c2n1-c1cccc(C(F)(F)F)c1 [HTL-6-50, 9-[(1H)-3-pyrazolyl]-2-oxo-1-[3-(trifluoromethyl)phenyl]-1,2-dihydrobenzo[h][1,6]naphthyridine] | 159 | – | > 200000 | moderate inhibitory activity | 283 to 286 | –
10 | CC(C)(C)OC(=O)Nc1ccc(-c2ccc3ncc4ccc(=O)n(-c5cccc(C(F)(F)F)c5)c4c3c2)cn1 [HTL-7-21, 9-[3-(6-tert-butoxycarbonylamino)pyridyl]-2-oxo-1-[3-(trifluoromethyl)phenyl]-1,2-dihydrobenzo[h][1,6]naphthyridine] | 11.9 | – | 2080 ± 2290 | – | – | –
11 | NC(=O)c1ccc(-c2ccc3ncc4oc(=O)n(-c5cccc(C(F)(F)F)c5)c4c3c2)cc1 [HTL-5-21, 8-(4-carbamoyl)phenyl-1-[3-(trifluoromethyl)phenyl]oxazolo[5,4-c]quinolin-2(1H)-one] | 15.1 | moderate inhibitory activity | 2000 ± 300 | better inhibitory activity | 294 to 296 | –
12 | CN(C)c1ccc(-c2ccc3ncc4ccc(=O)n(-c5cccc(C(F)(F)F)c5)c4c3c2)cn1 [HTL-7-16, 9-[3-(6-N,N-dimethyl)pyridyl]-2-oxo-1-[3-(trifluoromethyl)phenyl]-1,2-dihydrobenzo[h][1,6]naphthyridine] | 8.91 | – | 90 ± 10 | excellent inhibitory activity | – | –
13 | O=C(Nc1ccc(-c2ccc3ncc4ccc(=O)n(-c5cccc(C(F)(F)F)c5)c4c3c2)cn1)Oc1ccccc1 [HTL-7-15, 9-[3-(6-phenoxyamido)pyridyl]-2-oxo-1-[3-(trifluoromethyl)phenyl]-1,2-dihydrobenzo[h][1,6]naphthyridine] | 25 | – | – | – | – | 90 ± 20
14 | O=c1ccc2cnc3ccc(-c4ccc(N5CCCC5)nc4)cc3c2n1-c1cccc(C(F)(F)F)c1 [HTL-7-20, 9-[3-(6-pyrrolidinyl)pyridyl]-2-oxo-1-[3-(trifluoromethyl)phenyl]-1,2-dihydrobenzo[h][1,6]naphthyridine] | 11.3 | – | 100 ± 10 | – | – | –
15 | COc1ccc(CC(=O)Nc2ccc(-c3ccc4ncc5ccc(=O)n(-c6cccc(C(F)(F)F)c6)c5c4c3)cn2)cc1 [HTL-7-11, 9-{3-[6-(4-methoxy)phenylacetylamino]pyridyl}-2-oxo-1-[3-(trifluoromethyl)phenyl]-1,2-dihydrobenzo[h][1,6]naphthyridine] | 32.5 | – | 95 ± 7 | – | 241 to 243 | –
16 | Nc1cccc(Nc2ccc3ncc4ccc(=O)n(-c5cccc(C(F)(F)F)c5)c4c3c2)c1 [HTL-6-11, 9-(3-aminophenyl)imino-2-oxo-1-[3-(trifluoromethyl)phenyl]-1,2-dihydrobenzo[h][1,6]naphthyridine] | 255 | moderate activity | 890 | moderate inhibitory activity | – | –
17 | COc1cc(-c2ccc3ncc4ccc(=O)n(-c5cccc(C(F)(F)F)c5)c4c3c2)cnc1N [HTL-7-19, 9-[3-(6-amino-5-methoxy)pyridyl]-2-oxo-1-[3-(trifluoromethyl)phenyl]-1,2-dihydrobenzo[h][1,6]naphthyridine] | 7.58 | – | 45 ± 10 | excellent inhibitory activity | 233 to 234 | –
18 | CCCCC(=O)Nc1ccc(-c2ccc3ncc4ccc(=O)n(-c5cccc(C(F)(F)F)c5)c4c3c2)cn1 [HTL-7-08, 9-[3-(6-valerylamino)pyridyl]-2-oxo-1-[3-(trifluoromethyl)phenyl]-1,2-dihydrobenzo[h][1,6]naphthyridine] | 76.6 | – | 200 ± 20 | – | – | –
19 | O=C(Nc1ccc(-c2ccc3ncc4ccc(=O)n(-c5cccc(C(F)(F)F)c5)c4c3c2)cn1)OCc1ccccc1 [HTL-7-14, 9-[3-(6-benzyloxyamido)pyridyl]-2-oxo-1-[3-(trifluoromethyl)phenyl]-1,2-dihydrobenzo[h][1,6]naphthyridine] | 306 | – | 23700 ± 1020 | moderate inhibitory activity | – | –
20 | O=C1Cc2cc(-c3ccc4ncc5ccc(=O)n(-c6cccc(C(F)(F)F)c6)c5c4c3)ccc2N1 [HTL-7-04, 9-[5-(2-oxo)indolyl]-2-oxo-1-[3-(trifluoromethyl)phenyl]-1,2-dihydrobenzo[h][1,6]naphthyridine] | 240 | – | 10500 ± 560 | moderate inhibitory activity | – | –
21 | O=c1ccc2cnc3ccc(-c4ccc(N5CCOCC5)nc4)cc3c2n1-c1cccc(C(F)(F)F)c1 [HTL-7-18, 9-[3-(6-morpholin-4-yl)pyridyl]-2-oxo-1-[3-(trifluoromethyl)phenyl]-1,2-dihydrobenzo[h][1,6]naphthyridine] | 22.7 | – | 1800 ± 1170 | – | – | –

Source: US20220220106A1, “QUINOLINE COMPOUNDS AND PHARMACEUTICAL COMPOSITIONS AND USES THEREOF” (Academy of Military Medical Sciences, priority 2019, published 2022)
